Results as given in article PMC6479253 (Assay and Drug Development Technologies, 2019).
Read-outs that look alike come from different tables or passages of the source.

Legend:
human Kir2.1 channels = target: T1, human Kir2.1 channels (Homo sapiens, UniProt P63252); test: cell-based; type: cell-based
T1 sequence (P63252 1-427): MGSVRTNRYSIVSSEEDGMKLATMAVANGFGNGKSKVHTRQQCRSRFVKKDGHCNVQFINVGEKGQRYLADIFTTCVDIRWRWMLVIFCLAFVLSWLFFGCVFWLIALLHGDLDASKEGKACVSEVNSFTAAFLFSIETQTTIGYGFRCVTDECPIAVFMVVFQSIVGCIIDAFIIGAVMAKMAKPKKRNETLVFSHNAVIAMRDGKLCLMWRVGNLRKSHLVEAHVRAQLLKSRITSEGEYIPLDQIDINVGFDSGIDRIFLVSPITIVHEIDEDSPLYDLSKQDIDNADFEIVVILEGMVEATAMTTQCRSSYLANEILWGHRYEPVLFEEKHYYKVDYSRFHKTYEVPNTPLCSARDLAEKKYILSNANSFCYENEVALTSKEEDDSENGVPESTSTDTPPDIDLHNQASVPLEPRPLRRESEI

Kir2.1 [1] = settings: HEK cells, at −90 mV; ref Shen et al. 43; cited from earlier work
Kir2.1 [2] = settings: Xenopus oocytes, at −120 mV; ref Schram et al. 23; cited from earlier work
IK1 currents = settings: 3 μM chloroquine, at −100 mV; cited from earlier work
Kir2.1 [3] = settings: at −100 mV, manual patch-clamp; cited from earlier work

SMILES | Hill coefficient (nH) (human Kir2.1 channels) | IC50 (Kir2.1 [1]) [µM] | IC50 (Kir2.1 [2]) [µM] | Hill slope nH (95% CI) (human Kir2.1 channels) | IC50 (human Kir2.1 channels) [µM] | decrease of IK1 currents (IK1 currents) [%] | IC50 (Kir2.1 [3]) [µM]
[Ba+2].[Cl-].[Cl-] [Ba^2+] | 1.03 | 7.9 | 16 |  |  |  | 
CCN(CC)CCCC(C)Nc1ccnc2cc(Cl)ccc12 (stereo not drawn) [Chloroquine, 4-N-(7-chloroquinolin-4-yl)-1-N,1-N-diethylpentane-1,4-diamine] |  |  |  | 0.80 (0.76–0.83) | 1.9 | 67 | 
CN(C)CCCN1c2ccccc2Sc2ccc(Cl)cc21 [Chlorpromazine, 3-(2-chlorophenothiazin-10-yl)-N,N-dimethylpropan-1-amine] |  |  |  | 1.7 (1.4–2.1) | 3.8 |  | 
COc1ccc(CNCc2cccc3ccccc23)cc1 [ML133, N-(4-methoxybenzyl)-1-(naphthalene-1-yl) methanamine] |  |  |  | 2.6 (2.2–3.1) | 1.2 |  | 1.8
COc1ccc(CCCOC(Cn2ccnc2)c2ccc(OC)cc2)cc1 (stereo not drawn) [SKF-96365, 1-[2-(4-methoxyphenyl)-2-[3-(4-methoxyphenyl)propoxy]ethyl]imidazole] |  |  |  | 1.3 (1.1–1.5) | 4.7 |  | 
COc1ccc(C2CCN(CC[C@H]3CCOc4ccccc43)CC2)cc1OC [Terikalant, 1-[2-[(4S)-3,4-dihydro-2H-chromen-4-yl]ethyl]-4-(3,4-dimethoxyphenyl)piperidine] |  |  |  | 0.98 (0.88–1.1) | 8.4 |  | 
